Like-named read-outs stand apart in the source and are kept apart here.
Assay: Solubility in fluorine-containing organic solvent 1,3-bis(trifluoromethyl)benzene, visually measured
Description: The solubility of the fluorine-containing boronic acid ester compound [A] in 1,3-bis(trifluoromethyl)benzene, which was a fluorine-containing organic solvent used in Reference Example 3, described later, was 3.0 g/10 ml·solvent. Here, the solubility was determined in such a manner that the compound was added and stirred in 10 ml of said fluorine-containing organic solvent at 25° C., and then the maximum amount of addition sufficient to make the solution homogeneous was visually measured.
From this fact, a high solubility in a fluorine-containing organic solvent was confirmed.

[1] = 10 ml solvent, stirred at 25° C., maximum amount of addition giving a homogeneous solution, visually measured

Structure (SMILES)	solubility in 1,3-bis(trifluoromethyl)benzene [1]	other results
CN(C(=O)C(F)(OC(F)(F)C(F)(OC(F)(F)C(F)(OC(F)(F)C(F)(F)C(F)(F)F)C(F)(F)F)C(F)(F)F)C(F)(F)F)c1cc(B2OC(C)(C)C(C)(C)O2)cc(B2OC(C)(C)C(C)(C)O2)c1 (stereo not shown) [compound [B]]		solubility in a fluorine-containing organic solvent (5 g added to 10 ml of 1,3-bis(trifluoromethyl)benzene): a homogeneous solution was formed
CC1(C)OB(c2ccc(B3OC(C)(C)C(C)(C)O3)cc2)OC1(C)C [1,4-bis(4,4,5,5-tetramethyl-1,3,2-dioxaborolan-2-yl)benzene]		solubility in 1,3-bis(trifluoromethyl)benzene: 0.17 g/10 ml·solvent
CN(C(=O)C(F)(OC(F)(F)C(F)(F)C(F)(F)F)C(F)(F)F)c1cc(B2OC(C)(C)C(C)(C)O2)cc(B2OC(C)(C)C(C)(C)O2)c1 (stereo not shown) [compound [A]]	3.0 g/10 ml·solvent	
OB(O)c1ccc(B(O)O)cc1 [1,4-benzene diboronic acid]	insoluble	
